According to paper doi:10.1101/2023.12.04.569845, “Identification of 4-(6-((2-methoxyphenyl)amino)pyrazin-2-yl)benzoic acids as CSNK2A inhibitors with antiviral activity and improved selectivity over PIM3” (bioRxiv, 2023):
Read-outs that look alike come from different tables or passages of the source. Blank lines part the entries; values can stand above or below the compound they belong to.

Assays:
Experiment in all cases: biochemical
Parameters in all cases: Thermal shift (DSF, SYPRO Orange) Tm shift of recombinant kinase domains at 10 uM compound
[1] = molecular target: DYRK1A (Homo sapiens, UniProt Q13627)
Description: (§1) S23 Thermal stability kinase selectivity. The assay was performed as previously described. 9,10 Briefly, recombinant protein kinase domains at a concentration of 2 μM were mixed with 10 μM compound in a buffer containing 20 mM HEPES, pH 7.5, and 500 mM NaCl. SYPRO Orange (5000×, Invitrogen) was added as a fluorescence probe (1 µl per mL). Subsequently, temperature-dependent protein unfolding profiles were measured using the QuantStudio™ 5 realtime PCR machine (Thermo Fisher). […] The temperature was raised with a step rate of 3°C per minute. Data points were analysed with the internal software (Thermal Shift SoftwareTM Version 1.4, Thermo Fisher) using the Boltzmann equation to determine the inflection point of the transition curve.

[2] = molecular target: NEK7 (Homo sapiens, UniProt Q8TDX7)
Description: as §1

[3] = molecular target: AAK1 (Homo sapiens, UniProt Q2M2I8)
Description: as §1

[4] = molecular target: BRD4 (Homo sapiens, UniProt O60885)
Description: as §1

[5] = molecular target: TAF1 (Homo sapiens, UniProt P21675)
Description: as §1

[6] = molecular target: T1, NQO2 (Homo sapiens, UniProt P16083)
T1 sequence (P16083 1-231): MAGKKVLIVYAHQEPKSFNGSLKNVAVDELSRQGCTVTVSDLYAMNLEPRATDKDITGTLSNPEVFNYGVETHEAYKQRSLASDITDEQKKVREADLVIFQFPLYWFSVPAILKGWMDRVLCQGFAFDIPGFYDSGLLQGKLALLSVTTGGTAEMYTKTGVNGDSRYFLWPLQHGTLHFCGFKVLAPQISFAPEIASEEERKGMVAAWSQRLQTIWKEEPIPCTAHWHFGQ
Description: as §1

[7] = molecular target: T2, PHKg2 (Homo sapiens, UniProt P15735)
T2 construct: kinase domain
T2 sequence (P15735 1-406): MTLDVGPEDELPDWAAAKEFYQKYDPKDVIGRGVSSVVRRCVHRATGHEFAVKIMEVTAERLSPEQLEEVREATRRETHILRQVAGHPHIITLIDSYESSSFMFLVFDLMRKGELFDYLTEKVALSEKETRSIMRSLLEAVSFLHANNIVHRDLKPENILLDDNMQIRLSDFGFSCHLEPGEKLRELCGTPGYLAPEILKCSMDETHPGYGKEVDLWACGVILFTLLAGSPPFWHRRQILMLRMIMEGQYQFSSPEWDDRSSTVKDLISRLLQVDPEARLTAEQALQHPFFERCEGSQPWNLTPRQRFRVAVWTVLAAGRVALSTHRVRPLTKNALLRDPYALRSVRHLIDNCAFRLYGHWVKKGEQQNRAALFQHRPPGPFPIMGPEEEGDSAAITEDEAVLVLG
Description: as §1

[8] = molecular target: T3, TLK1 (Homo sapiens, UniProt Q9UKI8)
T3 sequence (Q9UKI8 1-766): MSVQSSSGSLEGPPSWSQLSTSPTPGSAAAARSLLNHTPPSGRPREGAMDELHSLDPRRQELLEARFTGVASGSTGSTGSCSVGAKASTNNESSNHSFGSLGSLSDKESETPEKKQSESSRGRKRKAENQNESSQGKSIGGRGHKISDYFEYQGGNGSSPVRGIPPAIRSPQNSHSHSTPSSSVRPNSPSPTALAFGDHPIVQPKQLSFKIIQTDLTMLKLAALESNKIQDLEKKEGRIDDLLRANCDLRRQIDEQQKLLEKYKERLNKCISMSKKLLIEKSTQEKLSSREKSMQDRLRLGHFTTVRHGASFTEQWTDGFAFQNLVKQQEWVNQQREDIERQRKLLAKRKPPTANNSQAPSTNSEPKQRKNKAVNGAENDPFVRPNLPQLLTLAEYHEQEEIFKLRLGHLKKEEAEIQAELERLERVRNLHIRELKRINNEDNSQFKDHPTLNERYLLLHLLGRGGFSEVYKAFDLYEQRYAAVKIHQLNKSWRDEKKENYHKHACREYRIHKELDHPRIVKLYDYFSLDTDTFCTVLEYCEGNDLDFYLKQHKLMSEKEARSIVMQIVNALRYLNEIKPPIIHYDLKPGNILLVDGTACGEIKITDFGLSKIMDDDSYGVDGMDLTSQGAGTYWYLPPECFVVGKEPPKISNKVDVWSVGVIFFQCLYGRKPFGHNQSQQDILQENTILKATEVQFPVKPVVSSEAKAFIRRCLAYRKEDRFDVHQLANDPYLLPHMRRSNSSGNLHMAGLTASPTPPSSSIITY
Description: as §1

[9] = molecular target: T4, DYRK2 (Homo sapiens, UniProt Q92630)
T4 sequence (Q92630 1-601): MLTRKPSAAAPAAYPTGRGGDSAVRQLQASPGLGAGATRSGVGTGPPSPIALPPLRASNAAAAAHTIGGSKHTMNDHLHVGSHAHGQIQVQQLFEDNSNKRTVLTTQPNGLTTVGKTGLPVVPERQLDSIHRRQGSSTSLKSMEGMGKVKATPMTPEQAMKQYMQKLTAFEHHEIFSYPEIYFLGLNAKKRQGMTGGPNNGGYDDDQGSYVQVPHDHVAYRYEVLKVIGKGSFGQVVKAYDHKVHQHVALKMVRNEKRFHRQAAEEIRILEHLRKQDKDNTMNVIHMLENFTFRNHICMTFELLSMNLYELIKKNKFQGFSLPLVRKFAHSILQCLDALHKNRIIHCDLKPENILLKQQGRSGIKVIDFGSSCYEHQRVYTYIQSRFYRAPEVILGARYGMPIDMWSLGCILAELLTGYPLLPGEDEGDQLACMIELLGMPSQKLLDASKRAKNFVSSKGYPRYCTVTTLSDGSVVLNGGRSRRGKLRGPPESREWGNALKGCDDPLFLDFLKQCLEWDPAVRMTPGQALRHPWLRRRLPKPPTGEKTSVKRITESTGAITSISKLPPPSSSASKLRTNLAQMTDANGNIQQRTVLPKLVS
Description: as §1

Sequence of NEK7 (Q8TDX7 whole entry): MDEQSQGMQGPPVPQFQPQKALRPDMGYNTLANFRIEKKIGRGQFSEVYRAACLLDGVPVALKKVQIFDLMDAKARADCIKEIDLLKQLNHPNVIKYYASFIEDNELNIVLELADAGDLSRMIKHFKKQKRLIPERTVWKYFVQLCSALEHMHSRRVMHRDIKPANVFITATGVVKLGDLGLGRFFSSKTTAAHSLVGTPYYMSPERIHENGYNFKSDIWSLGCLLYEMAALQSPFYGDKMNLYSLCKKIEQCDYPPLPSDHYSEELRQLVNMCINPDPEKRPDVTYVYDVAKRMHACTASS
Sequence of AAK1 (Q2M2I8 whole entry): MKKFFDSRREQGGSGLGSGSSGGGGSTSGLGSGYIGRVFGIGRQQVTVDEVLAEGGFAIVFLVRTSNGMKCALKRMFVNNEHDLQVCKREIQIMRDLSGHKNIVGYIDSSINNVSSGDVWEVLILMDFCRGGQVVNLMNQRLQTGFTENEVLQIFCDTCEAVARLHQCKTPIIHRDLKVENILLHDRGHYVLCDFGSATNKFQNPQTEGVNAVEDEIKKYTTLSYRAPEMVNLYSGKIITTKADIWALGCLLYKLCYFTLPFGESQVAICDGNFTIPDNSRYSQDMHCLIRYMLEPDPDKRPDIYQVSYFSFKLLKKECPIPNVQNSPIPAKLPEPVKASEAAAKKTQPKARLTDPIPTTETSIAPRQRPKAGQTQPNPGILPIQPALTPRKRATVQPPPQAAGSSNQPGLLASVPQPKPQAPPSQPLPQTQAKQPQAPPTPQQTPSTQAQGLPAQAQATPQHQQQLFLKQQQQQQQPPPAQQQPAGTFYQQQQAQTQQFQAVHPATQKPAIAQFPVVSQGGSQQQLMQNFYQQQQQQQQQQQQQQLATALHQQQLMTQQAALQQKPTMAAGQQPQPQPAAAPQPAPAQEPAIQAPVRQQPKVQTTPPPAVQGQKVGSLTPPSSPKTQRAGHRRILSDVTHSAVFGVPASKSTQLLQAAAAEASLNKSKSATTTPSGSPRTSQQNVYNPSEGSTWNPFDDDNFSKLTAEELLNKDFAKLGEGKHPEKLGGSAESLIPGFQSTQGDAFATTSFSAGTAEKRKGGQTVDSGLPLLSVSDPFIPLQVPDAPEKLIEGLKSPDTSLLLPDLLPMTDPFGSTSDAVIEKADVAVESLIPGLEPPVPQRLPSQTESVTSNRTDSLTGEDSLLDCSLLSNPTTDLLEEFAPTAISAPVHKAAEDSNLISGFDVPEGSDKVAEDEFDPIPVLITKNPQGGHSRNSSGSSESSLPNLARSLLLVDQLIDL
Sequence of TAF1 (P21675 whole entry): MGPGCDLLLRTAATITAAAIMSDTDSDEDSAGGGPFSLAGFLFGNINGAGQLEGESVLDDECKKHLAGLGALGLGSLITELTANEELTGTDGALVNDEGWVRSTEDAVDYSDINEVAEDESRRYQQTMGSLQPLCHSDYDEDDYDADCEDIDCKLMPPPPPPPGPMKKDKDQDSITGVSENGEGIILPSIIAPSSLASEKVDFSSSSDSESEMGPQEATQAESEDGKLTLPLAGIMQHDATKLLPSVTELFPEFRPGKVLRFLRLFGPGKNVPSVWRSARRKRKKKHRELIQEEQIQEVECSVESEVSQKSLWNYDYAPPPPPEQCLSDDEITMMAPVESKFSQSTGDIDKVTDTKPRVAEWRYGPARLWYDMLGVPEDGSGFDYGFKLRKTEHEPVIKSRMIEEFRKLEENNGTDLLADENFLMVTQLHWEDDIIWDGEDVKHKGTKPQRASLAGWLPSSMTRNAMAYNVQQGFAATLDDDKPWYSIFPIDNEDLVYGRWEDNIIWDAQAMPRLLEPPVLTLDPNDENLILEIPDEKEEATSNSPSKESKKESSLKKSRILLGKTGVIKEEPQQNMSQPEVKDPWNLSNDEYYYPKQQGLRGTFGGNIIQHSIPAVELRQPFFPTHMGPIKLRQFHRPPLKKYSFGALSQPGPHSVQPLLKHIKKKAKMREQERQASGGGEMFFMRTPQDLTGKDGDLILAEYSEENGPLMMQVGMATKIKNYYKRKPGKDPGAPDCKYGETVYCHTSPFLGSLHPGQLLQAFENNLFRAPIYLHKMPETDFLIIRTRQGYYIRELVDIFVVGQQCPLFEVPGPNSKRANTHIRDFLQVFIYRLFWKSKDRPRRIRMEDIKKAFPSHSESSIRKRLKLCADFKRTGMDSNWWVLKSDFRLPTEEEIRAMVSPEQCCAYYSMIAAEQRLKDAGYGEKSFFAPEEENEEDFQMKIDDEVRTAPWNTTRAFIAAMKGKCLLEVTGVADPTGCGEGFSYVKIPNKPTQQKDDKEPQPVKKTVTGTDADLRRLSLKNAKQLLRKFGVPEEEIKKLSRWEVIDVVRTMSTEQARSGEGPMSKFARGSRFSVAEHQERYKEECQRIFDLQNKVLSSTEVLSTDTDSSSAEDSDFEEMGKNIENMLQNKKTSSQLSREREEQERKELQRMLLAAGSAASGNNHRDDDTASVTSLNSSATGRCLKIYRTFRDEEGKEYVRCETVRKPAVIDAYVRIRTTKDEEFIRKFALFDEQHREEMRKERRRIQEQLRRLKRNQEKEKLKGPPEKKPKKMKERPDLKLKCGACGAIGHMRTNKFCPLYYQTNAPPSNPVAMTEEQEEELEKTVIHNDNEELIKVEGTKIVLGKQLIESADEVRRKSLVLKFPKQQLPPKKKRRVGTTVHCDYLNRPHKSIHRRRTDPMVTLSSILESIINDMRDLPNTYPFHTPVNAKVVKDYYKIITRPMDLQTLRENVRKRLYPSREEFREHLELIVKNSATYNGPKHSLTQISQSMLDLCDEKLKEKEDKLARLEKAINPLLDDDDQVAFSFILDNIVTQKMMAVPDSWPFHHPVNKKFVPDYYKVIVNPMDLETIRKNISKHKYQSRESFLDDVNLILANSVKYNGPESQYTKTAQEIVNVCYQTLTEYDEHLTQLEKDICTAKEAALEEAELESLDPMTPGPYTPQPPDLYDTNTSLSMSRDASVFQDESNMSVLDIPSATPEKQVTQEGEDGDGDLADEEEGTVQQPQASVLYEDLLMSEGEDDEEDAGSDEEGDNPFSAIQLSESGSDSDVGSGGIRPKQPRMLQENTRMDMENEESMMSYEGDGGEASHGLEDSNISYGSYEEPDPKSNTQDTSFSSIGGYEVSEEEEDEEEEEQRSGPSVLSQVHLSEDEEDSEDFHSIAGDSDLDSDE

ΔTm at 10 µM ([1]; read-out: 7c): 5 °C
ΔTm at 10 µM ([2]; read-out: 7c): -1 °C
ΔTm at 10 µM ([3]; read-out: 7c): 5 °C
ΔTm at 10 µM ([4]; read-out: 7c): 1 °C
ΔTm at 10 µM ([5]; read-out: 7c): 1 °C
ΔTm at 10 µM ([6]; read-out: 7c): -1 °C
ΔTm at 10 µM ([7]; read-out: 7c): 3 °C
ΔTm at 10 µM ([8]; read-out: 7c): -1 °C
ΔTm at 10 µM ([9]; read-out: 7c): 9 °C
SMILES: COc1ccc(OC(C)C)cc1Nc1cncc(-c2ccc(C(=O)O)cc2)n1 [7c]

ΔTm at 10 µM ([1]; read-out: 6c): 6 °C
ΔTm at 10 µM ([2]; read-out: 6c): -1 °C
ΔTm at 10 µM ([3]; read-out: 6c): 6 °C
ΔTm at 10 µM ([4]; read-out: 6c): 2 °C
ΔTm at 10 µM ([5]; read-out: 6c): 1 °C
ΔTm at 10 µM ([6]; read-out: 6c): -1 °C
ΔTm at 10 µM ([7]; read-out: 6c): 5 °C
ΔTm at 10 µM ([8]; read-out: 6c): -1 °C
ΔTm at 10 µM ([9]; read-out: 6c): 11 °C
SMILES: CC(C)Oc1ccc2ccn(-c3cncc(-c4ccc(C(=O)O)cc4)n3)c2c1 [6c]

ΔTm at 10 µM ([1]; read-out: 2): 7 °C
ΔTm at 10 µM ([2]; read-out: 2): 0 °C
ΔTm at 10 µM ([3]; read-out: 2): 7 °C
ΔTm at 10 µM ([4]; read-out: 2): 2 °C
ΔTm at 10 µM ([5]; read-out: 2): 0 °C
ΔTm at 10 µM ([6]; read-out: 2): -1 °C
ΔTm at 10 µM ([7]; read-out: 2): 8 °C
ΔTm at 10 µM ([8]; read-out: 2): 1 °C
ΔTm at 10 µM ([9]; read-out: 2): 12 °C
SMILES: CC(C)Nc1ccc2cnn(-c3cncc(-c4ccc(C(=O)O)cc4)n3)c2c1 [compound 2, 2]
